ChEMBL document CHEMBL1201862, “PubChem BioAssay data set” (2004)
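Method: 48-hour compound exposure of cells in 96-well plates, five concentrations, linear interpolation of endpoints. GI50 = concentration required for 50% inhibition of growth.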 Activity calls are given as the source filed them. Rule as the data show it: active = GI50 up to about 1.1 µM and inactive = higher.

Key:
Assay in all cases: NCI tumour cell line growth inhibition, 48 h
SNB-19 = system: SNB-19
Hs-578T = system: Hs-578T
Malme-3M = system: Malme-3M
KM12 = system: KM12
HOP-62 = system: HOP-62
NCI-H226 = system: NCI-H226
A498 = system: A498
TK-10 = system: TK-10
A549 = system: A549
RXF 393 = system: RXF 393
IGROV-1 = system: IGROV-1
NCI-H23 = system: NCI-H23
HL-60 = system: HL-60
NCI/ADR-RES = system: NCI/ADR-RES
MCF7 = system: MCF7
CCRF-CEM = system: CCRF-CEM
MDA-MB-231 = system: MDA-MB-231
NCI-H460 = system: NCI-H460
SN12C = system: SN12C
HT-29 = system: HT-29
OVCAR-5 = system: OVCAR-5
786-0 = system: 786-0
SK-MEL-5 = system: SK-MEL-5
UACC-257 = system: UACC-257
RPMI-8226 = system: RPMI-8226
OVCAR-3 = system: OVCAR-3
LOX IMVI = system: LOX IMVI
PC-3 = system: PC-3
T47D = system: T47D
K562 = system: K562
SF-268 = system: SF-268
SK-MEL-2 = system: SK-MEL-2
COLO 205 = system: COLO 205
SF-295 = system: SF-295
HCT-116 = system: HCT-116
SNB-75 = system: SNB-75
OVCAR-4 = system: OVCAR-4
SK-OV-3 = system: SK-OV-3
BT-549 = system: BT-549
HCC 2998 = system: HCC 2998
MDA-MB-435 = system: MDA-MB-435
OVCAR-8 = system: OVCAR-8
UACC-62 = system: UACC-62
ACHN = system: ACHN
M14 = system: M14
SK-MEL-28 = system: SK-MEL-28
CAKI-1 = system: CAKI-1
MDA-N = system: MDA-N
DU-145 = system: DU-145
U-251 = system: U-251
HOP-92 = system: HOP-92
UO-31 = system: UO-31
MOLT-4 = system: MOLT-4
NCI-H522 = system: NCI-H522
EKVX = system: EKVX
SW-620 = system: SW-620
HCT-15 = system: HCT-15
SF-539 = system: SF-539

`CCOC(=O)/C(C#N)=C/c1ccc2c(-c3c(OCC)ccc4cc(/C=C(\C#N)C(=O)OCC)ccc34)c(OCC)ccc2c1` was tested, and the GI50 (SNB-19) was > 100 µM (inactive), the GI50 (Hs-578T) was > 100 µM (inactive) and the GI50 (Malme-3M) was > 100 µM (inactive). For the same molecule, the GI50 (KM12) was > 100 µM (inactive), the GI50 (HOP-62) was > 100 µM (inactive) and the GI50 (NCI-H226) was > 100 µM (inactive). The GI50 (A498) was > 100 µM (inactive), the GI50 (TK-10) was > 100 µM (inactive) and the GI50 (A549) was > 100 µM (inactive). For the same molecule, the GI50 (RXF 393) was > 100 µM (inactive), the GI50 (IGROV-1) was > 100 µM (inactive) and the GI50 (NCI-H23) was > 100 µM (inactive). The GI50 (HL-60) was > 100 µM (inactive), the GI50 (NCI/ADR-RES) was > 100 µM (inactive) and the GI50 (MCF7) was > 100 µM (inactive). For the same molecule, the GI50 (CCRF-CEM) was > 100 µM (inactive), the GI50 (MDA-MB-231) was 18.5 µM (inactive) and the GI50 (NCI-H460) was > 100 µM (inactive). For the same molecule, the GI50 (SN12C) was > 100 µM (inactive), the GI50 (HT-29) was > 100 µM (inactive) and the GI50 (OVCAR-5) was > 100 µM (inactive). For the same molecule, the GI50 (786-0) was > 100 µM (inactive), the GI50 (SK-MEL-5) was > 100 µM (inactive) and the GI50 (UACC-257) was > 100 µM (inactive). For the same molecule, the GI50 (RPMI-8226) was > 100 µM (inactive), the GI50 (OVCAR-3) was > 100 µM (inactive) and the GI50 (LOX IMVI) was > 100 µM (inactive). The GI50 (PC-3) was > 100 µM (inactive), the GI50 (T47D) was > 100 µM (inactive) and the GI50 (K562) was > 100 µM (inactive). For the same molecule, the GI50 (SF-268) was > 100 µM (inactive), the GI50 (SK-MEL-2) was > 100 µM (inactive) and the GI50 (COLO 205) was > 100 µM (inactive). The GI50 (SF-295) was > 100 µM (inactive), the GI50 (HCT-116) was > 100 µM (inactive) and the GI50 (SNB-75) was > 100 µM (inactive). The GI50 (OVCAR-4) was > 100 µM (inactive), the GI50 (SK-OV-3) was > 100 µM (inactive) and the GI50 (BT-549) was > 100 µM (inactive). The GI50 (HCC 2998) was > 100 µM (inactive), the GI50 (MDA-MB-435) was > 100 µM (inactive) and the GI50 (OVCAR-8) was > 100 µM (inactive). For the same molecule, the GI50 (UACC-62) was > 100 µM (inactive), the GI50 (ACHN) was > 100 µM (inactive) and the GI50 (M14) was 15.7 µM (inactive). For the same molecule, the GI50 (SK-MEL-28) was > 100 µM (inactive), the GI50 (CAKI-1) was > 100 µM (inactive) and the GI50 (MDA-N) was > 100 µM (inactive). For the same molecule, the GI50 (DU-145) was > 100 µM (inactive), the GI50 (U-251) was > 100 µM (inactive) and the GI50 (HOP-92) was > 100 µM (inactive). For the same molecule, the GI50 (UO-31) was > 100 µM (inactive), the GI50 (MOLT-4) was > 100 µM (inactive) and the GI50 (NCI-H522) was > 100 µM (inactive). For the same molecule, the GI50 (EKVX) was > 100 µM (inactive), the GI50 (SW-620) was > 100 µM (inactive) and the GI50 (HCT-15) was over 100 µM.

`COc1cc2nc3n(c(=O)c2cc1OC)-c1ccc([N+](=O)[O-])cc1C3=O` was tested, and the GI50 (SNB-19) was > 100 µM (inactive), the GI50 (Hs-578T) was > 100 µM (inactive) and the GI50 (Malme-3M) was 34.5 µM (inactive). The GI50 (KM12) was 80.2 µM (inactive), the GI50 (HOP-62) was > 100 µM (inactive) and the GI50 (NCI-H226) was 26.1 µM (inactive). For the same molecule, the GI50 (A498) was 17.5 µM (inactive), the GI50 (TK-10) was 61.7 µM (inactive) and the GI50 (A549) was 52.7 µM (inactive). For the same molecule, the GI50 (RXF 393) was 20.3 µM (inactive), the GI50 (IGROV-1) was 26.1 µM (inactive) and the GI50 (NCI-H23) was 56.6 µM (inactive). For the same molecule, the GI50 (NCI/ADR-RES) was 89.5 µM (inactive), the GI50 (MCF7) was 11.9 µM (inactive) and the GI50 (MDA-MB-231) was 46 µM (inactive). For the same molecule, the GI50 (NCI-H460) was 68.4 µM (inactive), the GI50 (SN12C) was 66.7 µM (inactive) and the GI50 (HT-29) was > 100 µM (inactive). The GI50 (OVCAR-5) was > 100 µM (inactive), the GI50 (786-0) was 56.8 µM (inactive) and the GI50 (SK-MEL-5) was 50.8 µM (inactive). The GI50 (UACC-257) was 60.5 µM (inactive), the GI50 (RPMI-8226) was 28.7 µM (inactive) and the GI50 (OVCAR-3) was 22.6 µM (inactive). For the same molecule, the GI50 (LOX IMVI) was 38.7 µM (inactive), the GI50 (PC-3) was 41.5 µM (inactive) and the GI50 (T47D) was 0.891 µM (active). The GI50 (K562) was 31.5 µM (inactive), the GI50 (SF-268) was > 100 µM (inactive) and the GI50 (SK-MEL-2) was > 100 µM (inactive). For the same molecule, the GI50 (COLO 205) was > 100 µM (inactive), the GI50 (SF-295) was 83.2 µM (inactive) and the GI50 (HCT-116) was 34.8 µM (inactive). The GI50 (SNB-75) was 85.1 µM (inactive), the GI50 (OVCAR-4) was 15 µM (inactive) and the GI50 (SK-OV-3) was > 100 µM (inactive). For the same molecule, the GI50 (BT-549) was > 100 µM (inactive), the GI50 (SF-539) was > 100 µM (inactive) and the GI50 (HCC 2998) was > 100 µM (inactive). The GI50 (MDA-MB-435) was 19.4 µM (inactive), the GI50 (OVCAR-8) was 57.9 µM (inactive) and the GI50 (UACC-62) was 30.5 µM (inactive). For the same molecule, the GI50 (ACHN) was 39.2 µM (inactive), the GI50 (M14) was 52.1 µM (inactive) and the GI50 (SK-MEL-28) was 3.15 µM (inactive). The GI50 (CAKI-1) was 5.06 µM (inactive), the GI50 (MDA-N) was 30.5 µM (inactive) and the GI50 (DU-145) was 34.6 µM (inactive). The GI50 (U-251) was 46.7 µM (inactive), the GI50 (HOP-92) was > 100 µM (inactive) and the GI50 (UO-31) was 11.8 µM (inactive). The GI50 (MOLT-4) was 27.3 µM (inactive), the GI50 (NCI-H522) was 25.5 µM (inactive) and the GI50 (EKVX) was 36.9 µM (inactive). The GI50 (SW-620) was 11.3 µM (inactive) and the GI50 (HCT-15) was 32.4 µM.
